From ChEMBL document CHEMBL3885881, “DrugMatrix”

Species: Rattus norvegicus
Assay: DrugMatrix - Regimen: Daily Repeat
Type: toxicity, organism-based, Sprague-Dawley
Parameters: regimen Daily Repeat, gender Male, age 6-8 weeks
Details: in vivo, po, route oral GAVAGE, vehicle .5 % CMC; for ABSOLUTE BASOPHIL / ABSOLUTE EOSINOPHIL / ABSOLUTE LYMPHOCYTE / ABSOLUTE MONOCYTE / ABSOLUTE SEGMENTED NEUTROPHIL / BASOPHIL / EOSINOPHIL / ERYTHROCYTE COUNT / HEMATOCRIT / HEMOGLOBIN / LEUKOCYTE COUNT / LYMPHOCYTE / MEAN CORPUSCULAR HEMOGLOBIN / MEAN CORPUSCULAR HEMOGLOBIN CONCENTRATION / MEAN CORPUSCULAR VOLUME / MONOCYTE / NEUTROPHIL / NUCLEATED RED BLOOD CELLS / PLATELET COUNT: tissue Blood; for ALANINE AMINOTRANSFERASE / ALBUMIN / ALKALINE PHOSPHATASE / ASPARTATE AMINOTRANSFERASE / BLOOD UREA NITROGEN / CARBON DIOXIDE / CHLORIDE / CHOLESTEROL / CREATINE PHOSPHOKINASE / CREATININE / GLUCOSE / LACTATE DEHYDROGENASE / LIPASE / PHOSPHORUS / POTASSIUM / SODIUM / TOTAL BILIRUBIN / TOTAL PROTEIN / URIC ACID: tissue Plasma
[1] = 60 mg/kg, 72 h, dose level Low, time 3 day
[2] = 60 mg/kg, 120 h, dose level Low, time 5 day
[3] = 1200 mg/kg, 72 h, dose level High, time 3 day
[4] = 1200 mg/kg, 120 h, dose level High, time 5 day

With `CCS(=O)(=O)CCn1c([N+](=O)[O-])cnc1C` [TINIDAZOLE] the “ABSOLUTE BASOPHIL” value [1] was 0 CELLS/uL, the “ABSOLUTE EOSINOPHIL” value [1] was 339 CELLS/uL and the “ABSOLUTE LYMPHOCYTE” value [1] was 11000.67 CELLS/uL. The “ABSOLUTE MONOCYTE” value [1] was 171.33 CELLS/uL, the “ABSOLUTE SEGMENTED NEUTROPHIL” value [1] was 989 CELLS/uL and the BASOPHIL [1] was 0%. For the same compound, the EOSINOPHIL [1] was 2.67%, the “ERYTHROCYTE COUNT” value [1] was 5.79 x10E6/uL and the HEMATOCRIT [1] was 34.93%. The HEMOGLOBIN [1] was 13.13 G/DL, the “LEUKOCYTE COUNT” value [1] was 12.5 x10E3/uL and the LYMPHOCYTE [1] was 88%. For the same compound, the “MEAN CORPUSCULAR HEMOGLOBIN” value [1] was 22.67 pg, the “MEAN CORPUSCULAR HEMOGLOBIN CONCENTRATION” value [1] was 37.67 G/DL and the “MEAN CORPUSCULAR VOLUME” value [1] was 60.2 fL. For the same compound, the MONOCYTE [1] was 1.33%, the NEUTROPHIL [1] was 8% and the “NUCLEATED RED BLOOD CELLS” value [1] was 0 /100WBC. For the same compound, the “PLATELET COUNT” value [1] was 1415.67 x10E3/uL, the “ALANINE AMINOTRANSFERASE” value [1] was 51.33 u/L and the ALBUMIN [1] was 4.33 G/DL. The “ALKALINE PHOSPHATASE” value [1] was 361.33 u/L, the “ASPARTATE AMINOTRANSFERASE” value [1] was 96.67 u/L and the “BLOOD UREA NITROGEN” value [1] was 14.67 mg/dL. The “CARBON DIOXIDE” value [1] was 26 mmol/L, the CHLORIDE [1] was 105 MEQ/L and the CHOLESTEROL [1] was 71 mg/dL. The “CREATINE PHOSPHOKINASE” value [1] was 896 u/L, the CREATININE [1] was 0.17 mg/dL and the GLUCOSE [1] was 168 mg/dL. The “LACTATE DEHYDROGENASE” value [1] was 108.33 u/L, the LIPASE [1] was 9 u/L and the PHOSPHORUS [1] was 14.2 mg/dL. The POTASSIUM [1] was 6.01 MEQ/L, the SODIUM [1] was 145.6 MEQ/L and the “TOTAL BILIRUBIN” value [1] was 0.23 mg/dL. For the same compound, the “TOTAL PROTEIN” value [1] was 5.87 G/DL, the “URIC ACID” value [1] was 2.47 mg/dL and the “ABSOLUTE BASOPHIL” value [2] was 0 CELLS/uL. For the same compound, the “ABSOLUTE EOSINOPHIL” value [2] was 103.33 CELLS/uL, the “ABSOLUTE LYMPHOCYTE” value [2] was 13904.67 CELLS/uL and the “ABSOLUTE MONOCYTE” value [2] was 205.33 CELLS/uL. For the same compound, the “ABSOLUTE SEGMENTED NEUTROPHIL” value [2] was 1020 CELLS/uL, the BASOPHIL [2] was 0% and the EOSINOPHIL [2] was 0.67%. For the same compound, the “ERYTHROCYTE COUNT” value [2] was 5.73 x10E6/uL, the HEMATOCRIT [2] was 35.5% and the HEMOGLOBIN [2] was 13.43 G/DL. The “LEUKOCYTE COUNT” value [2] was 15.23 x10E3/uL, the LYMPHOCYTE [2] was 91.33% and the “MEAN CORPUSCULAR HEMOGLOBIN” value [2] was 23.43 pg. For the same compound, the “MEAN CORPUSCULAR HEMOGLOBIN CONCENTRATION” value [2] was 37.83 G/DL, the “MEAN CORPUSCULAR VOLUME” value [2] was 61.97 fL and the MONOCYTE [2] was 1.33%. The NEUTROPHIL [2] was 6.67%, the “NUCLEATED RED BLOOD CELLS” value [2] was 0.33 /100WBC and the “PLATELET COUNT” value [2] was 1361.67 x10E3/uL. The “ALANINE AMINOTRANSFERASE” value [2] was 48 u/L, the ALBUMIN [2] was 4.23 G/DL and the “ALKALINE PHOSPHATASE” value [2] was 407 u/L. The “ASPARTATE AMINOTRANSFERASE” value [2] was 87 u/L, the “BLOOD UREA NITROGEN” value [2] was 18 mg/dL and the “CARBON DIOXIDE” value [2] was 26.33 mmol/L. For the same compound, the CHLORIDE [2] was 107 MEQ/L, the CHOLESTEROL [2] was 76.33 mg/dL and the “CREATINE PHOSPHOKINASE” value [2] was 445.33 u/L. The CREATININE [2] was 0.21 mg/dL, the GLUCOSE [2] was 165.33 mg/dL and the “LACTATE DEHYDROGENASE” value [2] was 155 u/L. For the same compound, the LIPASE [2] was 9 u/L, the PHOSPHORUS [2] was 13.63 mg/dL and the POTASSIUM [2] was 6.07 MEQ/L. The SODIUM [2] was 145.9 MEQ/L, the “TOTAL BILIRUBIN” value [2] was 0.17 mg/dL and the “TOTAL PROTEIN” value [2] was 6.5 G/DL. For the same compound, the “URIC ACID” value [2] was 2.07 mg/dL, the “ABSOLUTE BASOPHIL” value [3] was 0 CELLS/uL and the “ABSOLUTE EOSINOPHIL” value [3] was 0 CELLS/uL. For the same compound, the “ABSOLUTE LYMPHOCYTE” value [3] was 8834.67 CELLS/uL, the “ABSOLUTE MONOCYTE” value [3] was 232.67 CELLS/uL and the “ABSOLUTE SEGMENTED NEUTROPHIL” value [3] was 799.33 CELLS/uL. For the same compound, the BASOPHIL [3] was 0%, the EOSINOPHIL [3] was 0% and the “ERYTHROCYTE COUNT” value [3] was 5.53 x10E6/uL. For the same compound, the HEMATOCRIT [3] was 35.63%, the HEMOGLOBIN [3] was 13.37 G/DL and the “LEUKOCYTE COUNT” value [3] was 9.87 x10E3/uL. For the same compound, the LYMPHOCYTE [3] was 89.67%, the “MEAN CORPUSCULAR HEMOGLOBIN” value [3] was 24.17 pg and the “MEAN CORPUSCULAR HEMOGLOBIN CONCENTRATION” value [3] was 37.57 G/DL. The “MEAN CORPUSCULAR VOLUME” value [3] was 64.4 fL, the MONOCYTE [3] was 2.33% and the NEUTROPHIL [3] was 8%. For the same compound, the “NUCLEATED RED BLOOD CELLS” value [3] was 0 /100WBC, the “PLATELET COUNT” value [3] was 1043.67 x10E3/uL and the “ALANINE AMINOTRANSFERASE” value [3] was 47 u/L. The ALBUMIN [3] was 4.5 G/DL, the “ALKALINE PHOSPHATASE” value [3] was 362.67 u/L and the “ASPARTATE AMINOTRANSFERASE” value [3] was 80.33 u/L. For the same compound, the “BLOOD UREA NITROGEN” value [3] was 15.33 mg/dL, the “CARBON DIOXIDE” value [3] was 28 mmol/L and the CHLORIDE [3] was 106 MEQ/L. The CHOLESTEROL [3] was 89.33 mg/dL, the “CREATINE PHOSPHOKINASE” value [3] was 226.67 u/L and the CREATININE [3] was 0.24 mg/dL. The GLUCOSE [3] was 123 mg/dL, the “LACTATE DEHYDROGENASE” value [3] was 186 u/L and the LIPASE [3] was 9.33 u/L. It also gave a PHOSPHORUS [3] of 11.47 mg/dL, a POTASSIUM [3] of 6.78 MEQ/L and an SODIUM [3] of 150.07 MEQ/L. The “TOTAL BILIRUBIN” value [3] was 0.3 mg/dL, the “TOTAL PROTEIN” value [3] was 6.13 G/DL and the “URIC ACID” value [3] was 1 mg/dL. The “ABSOLUTE BASOPHIL” value [4] was 0 CELLS/uL, the “ABSOLUTE EOSINOPHIL” value [4] was 57.67 CELLS/uL and the “ABSOLUTE LYMPHOCYTE” value [4] was 15287.67 CELLS/uL. For the same compound, the “ABSOLUTE MONOCYTE” value [4] was 50.33 CELLS/uL, the “ABSOLUTE SEGMENTED NEUTROPHIL” value [4] was 2437.67 CELLS/uL and the BASOPHIL [4] was 0%. For the same compound, the EOSINOPHIL [4] was 0.33%, the “ERYTHROCYTE COUNT” value [4] was 5.86 x10E6/uL and the HEMATOCRIT [4] was 35.6%. The HEMOGLOBIN [4] was 13.2 G/DL, the “LEUKOCYTE COUNT” value [4] was 17.83 x10E3/uL and the LYMPHOCYTE [4] was 85%. For the same compound, the “MEAN CORPUSCULAR HEMOGLOBIN” value [4] was 22.53 pg, the “MEAN CORPUSCULAR HEMOGLOBIN CONCENTRATION” value [4] was 37.07 G/DL and the “MEAN CORPUSCULAR VOLUME” value [4] was 60.8 fL. The MONOCYTE [4] was 0.33%, the NEUTROPHIL [4] was 14.33% and the “NUCLEATED RED BLOOD CELLS” value [4] was 0 /100WBC. For the same compound, the “PLATELET COUNT” value [4] was 1437 x10E3/uL, the “ALANINE AMINOTRANSFERASE” value [4] was 43.33 u/L and the ALBUMIN [4] was 4.3 G/DL. The “ALKALINE PHOSPHATASE” value [4] was 276.33 u/L, the “ASPARTATE AMINOTRANSFERASE” value [4] was 79.67 u/L and the “BLOOD UREA NITROGEN” value [4] was 19.33 mg/dL. The “CARBON DIOXIDE” value [4] was 25 mmol/L, the CHLORIDE [4] was 105 MEQ/L and the CHOLESTEROL [4] was 76.67 mg/dL. For the same compound, the “CREATINE PHOSPHOKINASE” value [4] was 212.67 u/L, the CREATININE [4] was 0.29 mg/dL and the GLUCOSE [4] was 152 mg/dL. The “LACTATE DEHYDROGENASE” value [4] was 226.67 u/L, the LIPASE [4] was 8.67 u/L and the PHOSPHORUS [4] was 12.57 mg/dL. The POTASSIUM [4] was 6.85 MEQ/L, the SODIUM [4] was 146.2 MEQ/L and the “TOTAL BILIRUBIN” value [4] was 0.13 mg/dL. The “TOTAL PROTEIN” value [4] was 6.7 G/DL and the “URIC ACID” value [4] was 2.17 mg/dL.
